Results on one molecule are retold here after patent publication US20110008475A1, “USE OF AN EMULSION OF MINT OIL OR OF L-CARVONE FOR THE FUNGICIDAL TREATMENT OF FRUIT, VEGETABLES OR PLANTS” (priority 2007, published 2011).

This test concerns Peronospora brassicae (cabbage mildew). The test can be described thus: Effect of L-carvone on cabbage mildew (infected cabbages treated after inoculation). The test is classed as in vivo. Particulars: cabbages infected with Peronospora brassicae, treated rapidly after inoculation; L-carvone at a minimal concentration of 1%; 21 days; FIG. 1. The source says: Cabbages were infected with Peronospora brassicae (cabbage mildew) then treated rapidly after inoculation with L-carvone or Aliette.

Regarding `C=C(C)C1CC=C(C)C(=O)C1` [L-carvone, 2-methyl-5-(1-methylethenyl)-2-cyclohexen-1-one], the “control of the infection by cabbage mildew” value is given as “able to control the infection effectively for 21 days”.
